Measurements: paper PMC4817154 (Scientific Reports, 2016)
Where a chain is given by its changes, count along the chain named. Names and notes keep the numbering of the source. Values joined by “and” are separate entries in the source; they are usually repeats but may differ in a detail not shown here. Identical values can stand only once.

Legend:
dmSERT-F90Y [1] = target: T1, dmSERT-F90Y (Drosophila melanogaster, UniProt P51905, F90Y); type: cell-based
T1 construct: expressed in transfected cells; host or cells: T-REx-293

dmSERT-D164A [2] = target: T2, dmSERT-D164A (Drosophila melanogaster, UniProt P51905, D164A); type: cell-based
T2 construct: expressed in transfected cells; host or cells: T-REx-293

dmSERT-M167I [3] = target: T3, dmSERT-M167I (Drosophila melanogaster, UniProt P51905, M167I); type: cell-based
T3 construct: expressed in transfected cells; host or cells: T-REx-293

dmSERT-G168A [4] = target: T4, dmSERT-G168A (Drosophila melanogaster, UniProt P51905, G168A); type: cell-based
T4 construct: expressed in transfected cells; host or cells: T-REx-293

dmSERT-N484E [5] = target: T5, dmSERT-N484E (Drosophila melanogaster, UniProt P51905, N484E); type: cell-based
T5 construct: expressed in transfected cells; host or cells: T-REx-293

dmSERT-P488T [6] = target: T6, dmSERT-P488T (Drosophila melanogaster, UniProt P51905, P488T); type: cell-based
T6 construct: expressed in transfected cells; host or cells: T-REx-293

dmSERT-I492V [7] = target: T7, dmSERT-I492V (Drosophila melanogaster, UniProt P51905, I492V); type: cell-based
T7 construct: expressed in transfected cells; host or cells: T-REx-293

ggSERT-WT = ggSERT-WT (Gallus gallus, UniProt Q6PWI2); experiment: Steady-state kinetics of [3H]5-HT transport; type: cell-based, chicken (Gallus gallus)
Excerpt: (§1) Control cells were transfected with empty vector.

dmSERT-WT = target: T8, dmSERT-WT (Drosophila melanogaster, UniProt P51905); experiment: Paroxetine inhibition of [3H]5-HT transport; type: cell-based
T8 construct: expressed in transfected cells; host or cells: T-REx-293
T8 sequence (P51905 1-622): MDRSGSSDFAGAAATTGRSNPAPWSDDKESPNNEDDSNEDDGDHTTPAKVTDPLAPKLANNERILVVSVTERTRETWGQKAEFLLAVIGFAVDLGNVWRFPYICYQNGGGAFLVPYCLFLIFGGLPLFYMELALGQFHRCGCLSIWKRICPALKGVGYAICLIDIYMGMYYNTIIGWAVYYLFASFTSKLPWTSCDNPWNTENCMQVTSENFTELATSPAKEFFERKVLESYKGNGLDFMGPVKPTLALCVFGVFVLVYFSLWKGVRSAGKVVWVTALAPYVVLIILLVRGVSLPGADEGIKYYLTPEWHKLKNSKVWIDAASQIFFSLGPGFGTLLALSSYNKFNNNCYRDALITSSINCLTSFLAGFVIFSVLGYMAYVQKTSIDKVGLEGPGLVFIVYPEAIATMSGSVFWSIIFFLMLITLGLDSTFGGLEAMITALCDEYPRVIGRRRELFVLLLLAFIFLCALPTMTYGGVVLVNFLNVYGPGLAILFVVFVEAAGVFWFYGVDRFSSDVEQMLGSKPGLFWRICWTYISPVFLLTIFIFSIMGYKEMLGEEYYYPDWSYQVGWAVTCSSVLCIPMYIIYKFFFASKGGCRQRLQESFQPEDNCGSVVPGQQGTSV

dmSERT-F90Y [8] = target: T1, dmSERT-F90Y; experiment: cell-based
dmSERT-D164A [9] = target: T2, dmSERT-D164A; experiment: cell-based
dmSERT-M167I [10] = target: T3, dmSERT-M167I; experiment: cell-based
dmSERT-G168A [11] = target: T4, dmSERT-G168A; experiment: cell-based
dmSERT-N484E [12] = target: T5, dmSERT-N484E; experiment: cell-based
dmSERT-P488T [13] = target: T6, dmSERT-P488T; experiment: cell-based
dmSERT-I492V [14] = target: T7, dmSERT-I492V; experiment: cell-based
LeuBAT-Δ13 = LeuBAT-Δ13 construct; cited from earlier work
dmSERT = target: dmSERT; design: method as in PMID 8197200, PMID 9677366; settings: read-out: published paroxetine Ki for inhibition of [3H]5-HT uptake; cited from earlier work
ggSERT = target: ggSERT; design: method as in PMID 15271993; settings: read-out: published paroxetine Ki for inhibition of [3H]5-HT uptake; cited from earlier work
hsSERT-Y95F = hsSERT-Y95F (Homo sapiens, UniProt P31645, Y95F); settings: cited from earlier work
NCCc1c[nH]c2ccc(O)cc12 = experiment: cells, lysate or membranes; settings: [3H]5-HT transport, T-REx-293 cells, average ± SEM, pH 7.4
[15] = substrate: NCCc1c[nH]c2ccc(O)cc12; experiment: cells, lysate or membranes; type: cell-based, chicken (Gallus gallus); settings: [3H]5-HT transport, T-REx-293 cells, average ± SEM, pH 7.4
Excerpt: as §1

For `NCCc1c[nH]c2ccc(O)cc12` [5-HT, 5-hydroxytryptamine], the “% wt Vmax” value (dmSERT-F90Y [1]) was 109.7 ± 4.2%, the “% wt Vmax” value (dmSERT-D164A [2]) was 136.0 ± 10.6% and the “% wt Vmax” value (dmSERT-M167I [3]) was 79.9 ± 22.1%. For the same molecule, the “% wt Vmax” value (dmSERT-G168A [4]) was 330.3 ± 61.7%, the “% wt Vmax” value (dmSERT-N484E [5]) was 8.0 ± 1.8% and the “% wt Vmax” value (dmSERT-P488T [6]) was 15.1 ± 0.3%. The “% wt Vmax” value (dmSERT-I492V [7]) was 89.8 ± 8.8% and the “% wt Vmax” value (ggSERT-WT) was 100 ± 9.6%.

`Fc1ccc([C@@H]2CCNC[C@H]2COc2ccc3c(c2)OCO3)cc1` [Paroxetine, (3S,4R)-3-[(2H-1,3-benzodioxol-5-yloxy)methyl]-4-(4-fluorophenyl)piperidine] showed an IC50 (dmSERT-WT) of 6.1 ± 1.35 nM, a Ki (dmSERT-WT; Ki, dmSERT-WT, from IC50 and Km via Cheng-Prusoff) of 6.04 ± 1.33 nM and an IC50 (dmSERT-F90Y [8]) of 5.31 ± 0.94 nM. The Ki (dmSERT-F90Y [8]) was 5.26 ± 0.93 nM, the IC50 (dmSERT-D164A [9]) was 0.86 ± 0.07 nM and the Ki (dmSERT-D164A [9]; Ki, dmSERT-D164A, from IC50 and Km via Cheng-Prusoff) was 0.9 nM and 0.86 nM. The IC50 (dmSERT-M167I [10]) was 2.71 ± 0.29 nM, the Ki (dmSERT-M167I [10]) was 2.68 ± 0.29 nM and the IC50 (dmSERT-G168A [11]) was 2.8 ± 0.66 nM. It also gave a Ki (dmSERT-G168A [11]) of 2.78 ± 0.66 nM, an IC50 (dmSERT-N484E [12]) of 1.9 ± 0.22 nM and a Ki (dmSERT-N484E [12]) of 1.83 ± 0.21 nM. For the same molecule, the IC50 (dmSERT-P488T [13]) was 20.5 ± 1.86 nM, the Ki (dmSERT-P488T [13]) was 20.3 ± 1.85 nM and the IC50 (dmSERT-I492V [14]) was 16.3 ± 1.2 nM. For the same molecule, the Ki (dmSERT-I492V [14]) was 16.2 ± 1.2 nM, the Kd (LeuBAT-Δ13) was about 430 nM and the Ki (dmSERT) was 3.4 nM. The Ki (ggSERT) was 397 nM.

In the case of `OC1(c2ccc(Cl)cc2)c2ccccc2C2=NCCN21` (stereo not drawn) [mazindol], the change in potency (hsSERT-Y95F) is listed as “increase”.

With “dmSERT-D164A (Drosophila melanogaster; D164A)” the Km (NCCc1c[nH]c2ccc(O)cc12; other: dmSERT-D164A) was 10,258 ± 756 nM and the Vmax (NCCc1c[nH]c2ccc(O)cc12; other: dmSERT-D164A) was 87.9 ± 6.8 pmol/min/mg total cell protein.

In the case of “dmSERT-F90Y (Drosophila melanogaster; F90Y)”, the Km (NCCc1c[nH]c2ccc(O)cc12; other: dmSERT-F90Y) is reported as 1,784 ± 121 nM and the Vmax (NCCc1c[nH]c2ccc(O)cc12; other: dmSERT-F90Y) is reported as 70.9 ± 2.7 pmol/min/mg total cell protein.

In the case of “dmSERT-G168A (Drosophila melanogaster; G168A)”, the Km (NCCc1c[nH]c2ccc(O)cc12; other: dmSERT-G168A) is reported as 3,342 ± 272 nM and the Vmax (NCCc1c[nH]c2ccc(O)cc12; other: dmSERT-G168A) is reported as 213.4 ± 39.9 pmol/min/mg total cell protein.

With “dmSERT-I492V (Drosophila melanogaster; I492V)” the Km (NCCc1c[nH]c2ccc(O)cc12; other: dmSERT-I492V) was 3,281 ± 357 nM and the Vmax (NCCc1c[nH]c2ccc(O)cc12; other: dmSERT-I492V) was 58.0 ± 5.7 pmol/min/mg total cell protein.

For “dmSERT-M167I (Drosophila melanogaster; M167I)”, the Km (NCCc1c[nH]c2ccc(O)cc12; other: dmSERT-M167I) was 1,487 ± 132 nM and the Vmax (NCCc1c[nH]c2ccc(O)cc12; other: dmSERT-M167I) was 51.6 ± 14.3 pmol/min/mg total cell protein.

With “dmSERT-N484E (Drosophila melanogaster; N484E)” the Km (NCCc1c[nH]c2ccc(O)cc12; other: dmSERT-N484E) was 522 ± 67 nM and the Vmax (NCCc1c[nH]c2ccc(O)cc12; other: dmSERT-N484E) was 5.2 ± 1.2 pmol/min/mg total cell protein.

For “dmSERT-P488T (Drosophila melanogaster; P488T)”, the Km (NCCc1c[nH]c2ccc(O)cc12; other: dmSERT-P488T) was 2,737 ± 277 nM and the Vmax (NCCc1c[nH]c2ccc(O)cc12; other: dmSERT-P488T) was 9.8 ± 0.2 pmol/min/mg total cell protein.

B1: ggSERT-WT (Gallus gallus) (protein)
chain: MENKATSNETQPLTSKKGISDCNEGEDCKENGLLIRNPKSALRLVDDGNKVHPGQGDKEEAAQISNGYSGVQSSGPCSGMGEAEDAQCTAPAATTTTTTTTSTTCGAEGQQQLMELGDRETWSKKIDFLLSVIGYAVDLGNVWRFPYICYQNGGGAFLIPYTIMAIFGGIPLFYMELALGQYHRNGCISIWRKICPIFKGIGFAICIIDLYVASYYNTIMAWVFYYLVSSFTTELPWTSCNNAWNTGNCTTYFSKDNISWALHSISPAEEFYTRQVLQVHRSNGLDDLGGISWQLTLCLLLIFIIVYFSIWKGVKTSGKVVWVTATFPYVILFILLVRGATLPGAWRGVLYYLKPEWQKLLATEVWVDAAAQIFFSLGPGFGVLLAYASYNKFHNNCYQDALVTSTVNCLTSFVSGFVIFTVLGYMAEMRNEDVSEVAKDMGPSLLFITYAEAIANMPASTFFAIIFFLMLLTLGLDSTFAGLEGVITGVLDEFPHVWSKRREFFVLGLIIICFLGSLATLTFGGAYVVKLFEEYATGPAVLTVVFLEAVAVAWFYGITQFCNDVKEMLGFAPGWYWRVCWVAISPIFLLFVTCSFLSNPPELRLFDYNYPYWTTVVGYCIGTSSIICIPIYMAYRLIITPGTLKERILKSITPETATEIPFGDIRMNAV
In the case of B1, the Vmax ([15]; other: ggSERT-WT) is reported as 18.4 ± 1.8 pmol/min/mg total cell protein.

B2: ggSERT-D209A (Gallus gallus; D209A) (protein)
chain: B1 chain with D209A
In the case of B2, the Km ([15]; other: ggSERT-D209A) is reported as 0.971 ± 0.071 µM and the Vmax ([15]; other: ggSERT-D209A) is reported as 73.8 ± 21.5 pmol/min/mg total cell protein.
